These results are taken from patent US11034661B2, “Substituted N′-hydroxycarbamimidoyl-1,2,5-oxadiazole compounds as indoleamine 2,3-dioxygenase IDO inhibitors” (Merck Sharp & Dohme Corp., priority 2017, dated 2021).

For assay [1], the target named is IDO1 in human whole blood stimulated with LPS and IFNγ (Homo sapiens (Human), UniProt P14902). Briefly: IDO1 Human Whole Blood Assay. Particulars: LPS and IFNγ 100 ng/mL, 18 h, kynurenine by LC/MS/MS. The assay is classed as cell-based. On the procedure:
IDO1 Human Whole Blood Assay
Compounds to be tested were serially diluted in ten 3-fold steps in DMSO starting from 10 mM. 3 μL of compound dilutions or DMSO alone were then dispensed from the dilution plate into a polypropylene 96-well assay plate containing 97 μL of RPMI using an Echo 555 acoustic liquid handler (Labcyte). LPS and IFNγ was prepared in RPMI to a 10× of final conc. (1000 ng/mL), final concentration is 100 ng/mL.
Human whole blood was drawn in sodium heparin coated tubes from healthy internal donors. Two hundred forty μL of blood was transferred to each of the wells of a v-bottom 96 well plate. Thirty μL of compound was transferred from intermediate dilution plate, and incubated for 15 min. Thirty μL from stimulants was then transferred to blood and mixed thoroughly. Plate was covered with breathable membrane and incubated at 37° C. for overnight (18 h).
On day 2 isotope labeled standard of kynurenine and tryptophan was made in water at 10× concentration and 30 μL was added to the blood at 3 μM final concentration. The assay plates were centrifuged at 300×G for 10 min with no brake to separate plasma from red blood cells. Sixty μL of plasma samples was removed without disturbing red blood cells. Plasma was diluted with RPMI in 1:1 ratio and proteins were precipitated out with two volume of Acetonitrile. The plates was centrifuged at 4000×G for 60 min. Twenty μL of supernatant was carefully transferred to a 384 well plate contain 40 μL of 0.1% formic acid in water and analyzed by LC/MS/MS.
LC/MS/MS analyses were performed using Thermo Fisher's LX4-TSQ Quantum Ultra system. This system consists of four Agilent binary high-performance liquid chromatography (HPLC) pumps and a TSQ Quantum Ultra triple quadruple MS/MS instrument. For each sample, 5 μL were injected onto an Atlantis T3 column (2.1 mm×150 mm, 3 μm particle size) from Waters. The mobile phase gradient pumped at 0.8 mL/min was used to elute the analytes from the column at 25° C. The elution started at 0% B increasing linearly to 25% B at 6.5 min, holding at 25% for 1 min, re-equilibrating to 10 min. Mobile phase A consisted of 0.1% formic acid in water. Mobile phase B consisted of 0.1% of formic acid in acetonitrile. Data was acquired in positive mode using a HESI interface. The operational parameters for the TSQ Quantum Ultra instrument were a spray voltage of 4000 V, capillary temperature of 380° C., vaporizer temperature 400° C., shealth gas 60 arbitrary units, Aux gas 20 arbitrary units, tube lens 85 and collision gas 1.2 mTorr. SRM chromatograms of kynurenine (Q 1: 209.2>Q3:94.0) and internal standard (Q1: 215.3>Q3:98.2) were collected for 90 sec. The peak area was integrated by Xcalibur Quan software. The ratios between the kynurenine generated in the reaction and 2D6-Kynurenine spiked-in internal standard were used to generate percentage inhibition and IC50 values. Compounds were titrated and IC50's were calculated by 4 parameter sigmoidal curve fitting formula.

In assay [2] the target is HIS-tagged IDO1 protein (Homo sapiens (Human), UniProt P14902). Briefly: IDO1 Enzyme Assay. It counts as biochemical. The following applies: recombinant IDO1 40 nM, tryptophan substrate, fluorescence readout. On the procedure: Biological Assays IDO1 Enzyme Assay
Chain of HIS-tagged IDO1 protein (P14902 whole entry): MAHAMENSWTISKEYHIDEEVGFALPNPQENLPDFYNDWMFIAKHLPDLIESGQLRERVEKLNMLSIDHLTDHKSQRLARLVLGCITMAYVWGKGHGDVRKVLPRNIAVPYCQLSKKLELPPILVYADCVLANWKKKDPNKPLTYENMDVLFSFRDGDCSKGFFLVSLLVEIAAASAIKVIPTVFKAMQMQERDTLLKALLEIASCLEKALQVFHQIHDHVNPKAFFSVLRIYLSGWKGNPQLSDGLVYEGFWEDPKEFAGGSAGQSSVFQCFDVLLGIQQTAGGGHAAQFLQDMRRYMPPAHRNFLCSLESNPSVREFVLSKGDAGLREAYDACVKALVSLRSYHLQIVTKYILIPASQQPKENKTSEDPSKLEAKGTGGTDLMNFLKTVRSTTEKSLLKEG
Compounds to be tested were serially diluted in ten 3-fold steps in DMSO starting from 10 mM DMSO stocks. Compound dilutions or DMSO alone were then dispensed from the dilution plate into a Greiner black 384-well assay plate (catalog #781086) using an Echo 555 acoustic liquid handler (Labcyte).
HIS-tagged IDO1 protein was recombinantly expressed in Escherichia coli using ZYP5052 autoinduction media supplemented with 500 μM delta aminolevulinic acid for 48 hours at 16 degrees Celsius. IDO1 protein was purified using Ni^2+-affinity resin and size exclusion chromatography. Purified protein was then diluted in assay buffer (50 mM Tris pH 7.0, 1% glycerol, 20 μM methylene blue, 0.05% Tween-20, 20 mM sodium ascorbate, 100 units/mL catalase to obtain a final IDO1 concentration of 40 nM. IDO1 solution […] or buffer alone […] was dispensed to wells of the assay plate using a BioRAPTR liquid dispenser (Beckman Coulter). Assay plates containing compound and IDO1 enzyme were incubated at room temperature for 30 minutes. Afterwards, 10 μL of 400 μM tryptophan in assay buffer were added to each well of the assay plate using a BioRAPTR liquid dispenser. Plates were incubated at room temperature for 60 minutes and reactions were quenched by addition of 10 μL of 0.5 M methyl isonipecotate in dimethyl sulfoxide. Plates were sealed and incubated at 37 degrees Celsius for 4 hours or 50 degrees Celsius for 2 hours. The plates are allowed to cool and then centrifuged for 1 minute at 1000×g. The resulting fluorescence was measured in an Envision plate reader (Perkin Elmer) with a 400/25 nm excitation filter and an 510/20 nm emission filter.
Potencies were calculated by linear least squares fit to the four parameter logistic IC50 equation.

Assay [3] has as its target IDO1 in Hela cells stimulated with IFNγ (Homo sapiens (Human), UniProt P14902). Briefly: IDO1 Cellular Assay in Hela Cells Stimulated with IFNγ. The assay is classed as cell-based. The following applies: IFNγ 100 ng/mL, about 48 hours, fluorescence readout, read-out: IDO1 HELA Cell Assay, IC50. The procedure: IDO1 Cellular Assay in Hela Cells Stimulated with IFNγ
Hela cells were cultured in complete Hela culture medium (90% EMEM, 10% heat-inactivated fetal bovine serum) and expanded to about 1×10^9 cells. The cells were then collected and frozen down at 10×10^6 cells/vial in 1 mL frozen medium (90% complete Hela culture medium, 10% DMSO)
Compounds to be tested were serially diluted in ten 3-fold steps in DMSO starting from 10 mM DMSO stocks in Echo low volume plate(s). Compound dilutions or DMSO alone were then dispensed from the dilution plate(s) into Greiner black 384-well assay plate(s) (catalog #781086, 50 nL/well) using an Echo 550 acoustic liquid handler (Labcyte).
Frozen Hela cells were thawed and transferred into Hela assay medium (99% complete Hela culture medium, 1% Pen/Strep) with 20 mL medium/vial of cells. The cells were spun down at 250 g in a table top centrifuge for 5 min and suspended in same volume of Hela assay medium. The cells were then counted and adjusted to a density of 2×10^5 cells/ml in Hela assay medium. Sterile L-tryptophan were added to the cells with final concentration of 300 uM L-tryptophan. A small aliquot (2 mL/plate) of Hela cells were set aside and were not treated with IFNγ, to serve as the Max-E control. The rest of Hela cells were added with sterile IFNγ (Cat #285-IF, R & D systems) with a final concentration of 100 ng/mL.
Hela cells with and without IFNγ were dispensed to the respective wells of 384-well assay plates containing the compounds. The plates were incubated for about 48 hours at a 37° C., 5% CO2 incubator. Afterwards, 12 μL of 0.5 M methyl isonipecotate in dimethyl sulfoxide were added into each well and the plates were sealed and incubated at 37° C. without CO2 overnight. The plates were centrifuged for 1 min at 200×g. The resulting fluorescence was measured in a Spectramax plate reader (Molecular Devices) with a 400 nm excitation filter and a 510 nm emission filter.
The fluorescence intensity of each well was corrected for the background observed in wells with non-IFNγ-treated cells and was expressed as a fraction of the intensity observed in wells of IFNγ-treated cells and DMSO only. Potencies were calculated by linear least squares fit to the four parameter logistic IC50 equation.

What is called pIC50 is the IC50 on a negative log10 scale, so that one unit is a factor of ten.

pIC50: −log10 of the molar value.

Chain of IDO1 in Hela cells stimulated with IFNγ (P14902 whole entry): as above
Chain of IDO1 in human whole blood stimulated with LPS and IFNγ (P14902 whole entry): as above

For `O=C(N1CC(Oc2nonc2/C(=N/O)N[C@H]2Cc3ccc(F)cc32)C1)C1(O)CC1` [Example 47, N-[(7S)-4-fluorobicyclo[4.2.0]octa-1,3,5-trien-7-yl]-N′-hydroxy-4-{[1-(1-hydroxycyclopropane-1-carbonyl)azetidin-3-yl]oxy}-1,2,5-oxadiazole-3-carboximidamide], in assay [1], the “IDO1 human whole blood assay, IC50” value is recorded as 500.6 nM. For the same compound, the pIC50 in assay [2] is 7.25; in assay [3] it was 7.30.
Regarding `C[C@@H](O)C(=O)N1CC(Oc2nonc2/C(=N/O)N[C@H]2Cc3ccc(F)cc32)C1` [Example 61, N-((S)-4-fluorobicyclo[4.2.0]octa-1(6),2,4-trien-7-yl)-N′-hydroxy-4-((1-((R)-2-hydroxypropanoyl)azetidin-3-yl)oxy)-1,2,5-oxadiazole-3-carboximidamide], the pIC50 is 7.05 in assay [2] and 7.00 in assay [3].
Take `CC(=O)NC(CO)COc1nonc1/C(=N/O)N[C@H]1Cc2ccc(F)cc21` (stereo partly drawn) [Example 39, N-{1-[(4-{N-[(7S)-4-fluorobicyclo[4.2.0]octa-1,3,5-trien-7-yl]-N′-hydroxycarbamimidoyl}-1,2,5-oxadiazol-3-yl)oxy]-3-hydroxypropan-2-yl}acetamide]: the pIC50 was 6.48 in assay [2] and 6.35 in assay [3].
`CC(=O)NC[C@@H](CO)Oc1nonc1/C(=N/O)N[C@H]1Cc2ccc(F)cc21` [Example 55, N-{(2S)-2-[(4-{N-[(7S)-4-fluorobicyclo[4.2.0]octa-1,3,5-trien-7-yl]-N′-hydroxycarbamimidoyl}-1,2,5-oxadiazol-3-yl)oxy]-3-hydroxypropyl}acetamide]: the values for the pIC50 in assay [2] and in assay [3] were 6.67 and 6.48, respectively.
On the same counts, the results for `NC(=O)NCCCOc1nonc1/C(=N/O)N[C@H]1Cc2ccc(F)cc21` [Example 18, 4-[3-(carbamoylamino)propoxy]-N-[(7S)-4-fluorobicyclo[4.2.0]octa-1,3,5-trien-7-yl]-N′-hydroxy-1,2,5-oxadiazole-3-carboximidamide] are 7.13 and 6.52.
Consider `O/N=C(\N[C@H]1Cc2ccc(F)cc21)c1nonc1OC1CNC1` [Example 21, 4-[(azetidin-3-yl)oxy]-N-[(7S)-4-fluorobicyclo[4.2.0]octa-1,3,5-trien-7-yl]-N′-hydroxy-1,2,5-oxadiazole-3-carboximidamide], for which the pIC50 in assay [2] was 6.65; in assay [3] it was 5.75.
With `C[C@H](O)CNC(=O)COc1nonc1/C(=N/O)N[C@H]1Cc2ccc(F)cc21` [Example 9, 2-[(4-{N-[(7S)-4-fluorobicyclo[4.2.0]octa-1,3,5-trien-7-yl]-N′-hydroxycarbamimidoyl}-1,2,5-oxadiazol-3-yl)oxy]-N-[(2S)-2-hydroxypropyl]acetamide], the pIC50 in assay [2] was 6.38; in assay [3] it was 6.21.
On the same counts, the results for `C[C@@H](CNS(N)(=O)=O)Oc1nonc1/C(=N/O)N[C@H]1Cc2ccc(F)cc21` [Example 67, (Z)-N-((S)-4-fluorobicyclo[4.2.0]octa-1(6),2,4-trien-7-yl)-N′-hydroxy-4-(((S)-1-(sulfamoylamino)propan-2-yl)oxy)-1,2,5-oxadiazole-3-carboximidamide] are 5.81 and 6.07.
With `CC(C)(COc1nonc1/C(=N/O)N[C@H]1Cc2ccc(F)cc21)NC(=O)CO` [Example 35, N-{1-[(4-{N-[(7S)-4-fluorobicyclo[4.2.0]octa-1,3,5-trien-7-yl]-N′-hydroxycarbamimidoyl}-1,2,5-oxadiazol-3-yl)oxy]-2-methylpropan-2-yl}-2-hydroxyacetamide], the pIC50 is 5.67 in assay [2] and 5.69 in assay [3].
Take `O=C(N[C@H]1C[C@@H](Oc2nonc2/C(=N/O)N[C@H]2Cc3ccc(F)cc32)C1)C1(O)CC1` [Example 65, N-((1R,3s)-3-((4-((Z)-N-((S)-4-fluorobicyclo[4.2.0]octa-1(6),2,4-trien-7-yl)-N′-hydroxycarbamimidoyl)-1,2,5-oxadiazol-3-yl)oxy)cyclobutyl)-1-hydroxycyclopropanecarboxamide]: the values for the pIC50 in assay [2] and in assay [3] were 6.78 and 6.55, respectively.
`NC(=O)COc1nonc1/C(=N/O)N[C@H]1Cc2ccc(F)cc21` [Example 17, 2-[(4-{N-[(7S)-4-fluorobicyclo[4.2.0]octa-1,3,5-trien-7-yl]-N′-hydroxycarbamimidoyl}-1,2,5-oxadiazol-3-yl)oxy]acetamide]: the pIC50 is 6.73 in assay [2] and 6.66 in assay [3].
Regarding `CC(=O)N[C@H]1C[C@H](Oc2nonc2/C(=N/O)N[C@H]2Cc3ccc(F)cc32)C1` [Example 37, N-{trans-3-[(4-{N-[(7S)-4-fluorobicyclo[4.2.0]octa-1,3,5-trien-7-yl]-N′-hydroxycarbamimidoyl}-1,2,5-oxadiazol-3-yl)oxy]cyclobutyl}acetamide], the pIC50 in assay [2] was 7.08; in assay [3], 7.04.
For `CC(=O)NC[C@H](C)Oc1nonc1/C(=N/O)N[C@H]1Cc2ccc(F)cc21` [Example 40, N-{(2S)-2-[(4-{N-[(7S)-4-fluorobicyclo[4.2.0]octa-1,3,5-trien-7-yl]-N′-hydroxycarbamimidoyl}-1,2,5-oxadiazol-3-yl)oxy]propyl}acetamide], the pIC50 was 5.62 in assay [2] and 5.99 in assay [3].
